Assay results from ChEMBL document CHEMBL1149117, “Synthesis and monoamine transporter binding of 2-(diarylmethoxymethyl)-3 beta-aryltropane derivatives” (J Med Chem, 2004).

Assays:
[1] = molecular target: Sodium-dependent dopamine transporter (Rattus norvegicus, UniProt P23977); assay: Binding affinity against dopamine transporter by using [3H]WIN-35428 as a radioligand
[2] = molecular target: T1, Muscarinic acetylcholine receptor M1 (Rattus norvegicus, UniProt P08482); assay: Binding affinity against Muscarinic acetylcholine receptor M1 by using [3H]pirenzepine as a radioligand
T1 sequence (P08482 whole entry): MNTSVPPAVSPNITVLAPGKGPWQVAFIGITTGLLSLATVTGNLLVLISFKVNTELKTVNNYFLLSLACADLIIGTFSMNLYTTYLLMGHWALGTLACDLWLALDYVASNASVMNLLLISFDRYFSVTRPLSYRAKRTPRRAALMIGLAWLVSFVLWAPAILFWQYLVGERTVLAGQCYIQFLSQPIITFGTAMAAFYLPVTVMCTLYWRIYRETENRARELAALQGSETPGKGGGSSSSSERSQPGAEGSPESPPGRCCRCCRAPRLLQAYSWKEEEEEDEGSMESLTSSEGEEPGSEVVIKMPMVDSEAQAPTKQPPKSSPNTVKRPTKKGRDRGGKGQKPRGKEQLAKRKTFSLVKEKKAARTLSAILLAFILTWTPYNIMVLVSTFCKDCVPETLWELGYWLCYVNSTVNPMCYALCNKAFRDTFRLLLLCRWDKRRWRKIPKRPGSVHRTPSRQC

[3] = molecular target: Sodium-dependent serotonin transporter (Rattus norvegicus, UniProt P31652); assay: Binding affinity against serotonin transporter by using [3H]-citalopram as a radioligand
[4] = molecular target: Norepinephrine transporter (Rattus norvegicus, UniProt Q9WTR4); assay: Binding affinity against norepinephrine transporter by using [3H]nisoxetine as a radioligand
Chain of Norepinephrine transporter (Q9WTR4 whole entry): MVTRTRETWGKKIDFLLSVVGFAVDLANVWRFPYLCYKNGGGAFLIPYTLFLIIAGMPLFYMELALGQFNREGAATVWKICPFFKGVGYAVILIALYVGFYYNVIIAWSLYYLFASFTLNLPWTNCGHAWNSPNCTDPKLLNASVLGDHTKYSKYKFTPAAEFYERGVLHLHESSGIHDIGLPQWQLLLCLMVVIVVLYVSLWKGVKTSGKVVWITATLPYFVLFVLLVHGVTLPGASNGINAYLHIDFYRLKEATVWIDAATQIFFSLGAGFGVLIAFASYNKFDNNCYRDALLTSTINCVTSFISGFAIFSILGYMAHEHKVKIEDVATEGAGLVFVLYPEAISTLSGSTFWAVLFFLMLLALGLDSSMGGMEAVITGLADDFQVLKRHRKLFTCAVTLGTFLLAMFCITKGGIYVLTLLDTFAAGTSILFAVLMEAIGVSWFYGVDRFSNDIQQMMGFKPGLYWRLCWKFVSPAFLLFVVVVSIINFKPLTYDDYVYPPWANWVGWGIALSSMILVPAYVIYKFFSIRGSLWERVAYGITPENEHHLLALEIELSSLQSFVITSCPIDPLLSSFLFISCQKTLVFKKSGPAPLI

Chain of Sodium-dependent dopamine transporter (P23977 whole entry): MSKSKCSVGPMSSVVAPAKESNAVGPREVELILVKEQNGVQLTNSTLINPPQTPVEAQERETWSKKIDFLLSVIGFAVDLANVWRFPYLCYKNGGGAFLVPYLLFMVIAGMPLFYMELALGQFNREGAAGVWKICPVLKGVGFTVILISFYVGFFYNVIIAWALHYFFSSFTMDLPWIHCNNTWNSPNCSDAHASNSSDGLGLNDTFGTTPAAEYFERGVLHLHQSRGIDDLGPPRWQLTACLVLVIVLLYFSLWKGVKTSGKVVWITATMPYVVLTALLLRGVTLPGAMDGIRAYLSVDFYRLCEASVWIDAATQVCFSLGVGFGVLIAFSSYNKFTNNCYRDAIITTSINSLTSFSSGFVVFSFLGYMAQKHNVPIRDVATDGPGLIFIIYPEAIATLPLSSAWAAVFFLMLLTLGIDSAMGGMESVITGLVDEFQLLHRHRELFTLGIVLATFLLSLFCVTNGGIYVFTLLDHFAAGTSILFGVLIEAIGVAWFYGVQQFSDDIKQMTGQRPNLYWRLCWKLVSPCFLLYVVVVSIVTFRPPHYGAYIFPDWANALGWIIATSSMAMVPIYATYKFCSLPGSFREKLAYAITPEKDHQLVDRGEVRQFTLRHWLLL
Chain of Sodium-dependent serotonin transporter (P31652 whole entry): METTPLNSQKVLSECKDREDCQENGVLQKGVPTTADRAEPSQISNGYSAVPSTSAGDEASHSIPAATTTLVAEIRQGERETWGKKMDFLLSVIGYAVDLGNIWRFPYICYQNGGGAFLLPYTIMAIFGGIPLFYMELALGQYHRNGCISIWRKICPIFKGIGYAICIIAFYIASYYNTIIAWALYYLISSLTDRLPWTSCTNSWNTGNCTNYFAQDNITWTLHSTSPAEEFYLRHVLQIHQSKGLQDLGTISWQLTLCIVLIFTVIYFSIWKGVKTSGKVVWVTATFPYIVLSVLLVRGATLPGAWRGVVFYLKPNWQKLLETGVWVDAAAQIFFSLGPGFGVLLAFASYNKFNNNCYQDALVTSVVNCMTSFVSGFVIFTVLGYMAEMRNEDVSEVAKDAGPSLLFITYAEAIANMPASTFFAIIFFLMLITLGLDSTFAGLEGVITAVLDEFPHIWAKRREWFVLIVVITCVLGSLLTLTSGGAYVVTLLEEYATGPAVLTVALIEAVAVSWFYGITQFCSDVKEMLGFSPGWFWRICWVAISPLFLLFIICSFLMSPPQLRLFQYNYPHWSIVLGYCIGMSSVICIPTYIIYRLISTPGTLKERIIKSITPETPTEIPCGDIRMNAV

In the case of `Cc1ccc(C2CC3CCC([C@@H]2COC(c2ccccc2)c2ccc(Cl)cc2)N3C)cc1` (some centres undefined), the Ki [1] is reported as 937 nM, the Ki [2] is reported as 18200 nM and the Ki [3] is reported as 1000 nM. It also gave a Ki [4] of 22500 nM.
For `CN1C2CCC1[C@H](COC(c1ccccc1)c1ccccc1)C(c1ccc(Cl)cc1)C2` (some centres undefined), the Ki [1] was 478 nM, the Ki [2] was 11500 nM and the Ki [3] was 408 nM. For the same compound, the Ki [4] was 4000 nM.
Compound `Cc1ccc(C2CC3CCC([C@@H]2COC(c2ccccc2)c2ccccc2)N3C)cc1` (some centres undefined) has a Ki [1] of 455 nM, a Ki [2] of 12600 nM and a Ki [3] of 530 nM. It also gave a Ki [4] of 2610 nM.
In the case of `CN1C2CCC1[C@H](COC(c1ccc(F)cc1)c1ccc(F)cc1)C(c1ccc(Cl)cc1)C2` (some centres undefined), the Ki [1] is reported as 250 nM, the Ki [2] is reported as 9930 nM and the Ki [3] is reported as 724 nM. For the same compound, the Ki [4] was 52300 nM.
In the case of `CN1C2CCC1[C@H](COC(c1ccccc1)c1ccc(Cl)cc1)C(c1ccc(Cl)cc1)C2` (some centres undefined), the Ki [1] is reported as 553 nM, the Ki [2] is reported as 9600 nM and the Ki [3] is reported as 1290 nM. For the same compound, the Ki [4] was 5600 nM.
With `Cc1ccc(C2CC3CCC([C@@H]2COC(c2ccc(F)cc2)c2ccc(F)cc2)N3C)cc1` (some centres undefined) the Ki [1] was 690 nM, the Ki [2] was 9700 nM and the Ki [3] was 786 nM. For the same compound, the Ki [4] was 16000 nM.
In the case of `Cc1ccc(C2CC3CCC([C@H]2COC(c2ccccc2)c2ccc(Cl)cc2)N3C)cc1` (some centres undefined), the Ki [1] is reported as 80 nM, the Ki [2] is reported as 31600 nM and the Ki [3] is reported as 443 nM. It also gave a Ki [4] of 4400 nM.
`CN1C2CCC1[C@@H](COC(c1ccc(F)cc1)c1ccc(F)cc1)C(c1ccc(Cl)cc1)C2` (some centres undefined) gave a Ki [1] of 99 nM, a Ki [2] of 16300 nM and a Ki [3] of 245 nM. For the same compound, the Ki [4] was 2890 nM.
For `Cc1ccc(C2CC3CCC([C@H]2COC(c2ccc(F)cc2)c2ccc(F)cc2)N3C)cc1` (some centres undefined), the Ki [1] was 62 nM, the Ki [2] was 15500 nM and the Ki [3] was 233 nM. It also gave a Ki [4] of 1830 nM.
For `CN1C2CCC1C(CCCOC(c1ccc(F)cc1)c1ccc(F)cc1)C(c1ccccc1)C2` (centres undefined), the Ki [1] was 60 nM.
In the case of `CN1C2CCC1[C@@H](COC(c1ccccc1)c1ccc(Cl)cc1)C(c1ccc(Cl)cc1)C2` (some centres undefined), the Ki [1] is reported as 76 nM, the Ki [2] is reported as 39900 nM and the Ki [3] is reported as 462 nM. It also gave a Ki [4] of 2060 nM.
`CN1C2CCC1[C@@H](COC(c1ccccc1)c1ccc(Cl)cc1)C(c1ccc(F)cc1)C2` (some centres undefined) showed a Ki [1] of 112 nM.
In the case of `CN1C2CCC1[C@@H](COC(c1ccccc1)c1ccccc1)C(c1ccc(F)cc1)C2` (some centres undefined), the Ki [1] is reported as 49 nM.
`CN1C2CCC1[C@@H](COC(c1ccc(F)cc1)c1ccc(F)cc1)C(c1ccc(F)cc1)C2` (some centres undefined) showed a Ki [1] of 63 nM.
Work on `Cc1ccc(C2CC3CCC([C@H]2COC(c2ccccc2)c2ccccc2)N3C)cc1` (some centres undefined) yielded a Ki [1] of 34 nM, a Ki [2] of 10600 nM and a Ki [3] of 121 nM. For the same compound, the Ki [4] was 684 nM.
`CN1C2CCC1C(CCCOC(c1ccccc1)c1ccc(Cl)cc1)C(c1ccccc1)C2` (centres undefined) gave a Ki [1] of 261 nM, a Ki [2] of 24600 nM and a Ki [3] of 45 nM.
Compound `CN1C2CCC1C(CCCOC(c1ccccc1)c1ccccc1)C(c1ccccc1)C2` (centres undefined) has a Ki [1] of 139 nM, a Ki [2] of 7970 nM and a Ki [3] of 61 nM. For the same compound, the Ki [4] was 207 nM.
`CN1C2CCC1[C@@H](COC(c1ccccc1)c1ccccc1)C(c1ccc(Cl)cc1)C2` (some centres undefined) was tested, and the Ki [1] was 52 nM, the Ki [2] was 11000 nM and the Ki [3] was 147 nM. For the same compound, the Ki [4] was 1190 nM.
